# Laboratory results published in patent publication EP2386565A2, “Compounds and methods to inhibit or augment an inflammatory response” (Cambridge Enterprise Ltd., priority 1999, dated 2000).
# Positions of bridges follow the written chain, without caps; N, C: chain ends. Non-standard residues stand in square brackets, D forms with d. Residues, ends and D or L forms follow the SMILES beside them.
# Legend:
# [1] = target: T1, 5-HT1a serotonin receptors (Homo sapiens, UniProt P08908); assay: Competition of 3H-8-OH-DPAT binding to membranes; settings: 100 µM highest concentration tested
# T1 construct: purchased RBI/Sigma S-160; host or cells: membranes
# T1 sequence (P08908 whole entry): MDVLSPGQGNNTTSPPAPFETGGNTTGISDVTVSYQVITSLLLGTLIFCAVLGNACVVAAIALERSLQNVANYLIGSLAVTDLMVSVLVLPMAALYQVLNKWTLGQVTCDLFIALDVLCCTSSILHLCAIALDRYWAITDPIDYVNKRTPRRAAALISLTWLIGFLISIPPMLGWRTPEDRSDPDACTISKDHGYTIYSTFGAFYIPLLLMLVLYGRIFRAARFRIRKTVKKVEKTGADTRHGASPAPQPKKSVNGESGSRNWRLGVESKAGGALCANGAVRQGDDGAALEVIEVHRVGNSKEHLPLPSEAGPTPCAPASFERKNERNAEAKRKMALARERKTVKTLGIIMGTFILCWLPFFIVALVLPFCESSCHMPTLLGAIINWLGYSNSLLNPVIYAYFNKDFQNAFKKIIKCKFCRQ
# Method: For SHT1a serotonin receptors, membranes (S-160, RBI/Sigma) are diluted into binding buffer (50 mM Tris pH 7.4 10 mM MgCl2 and 0.5 mM EDTA, with ascorbate at 1 mg/ml added immediately before use), e.g., 10 µl of membranes in 500 µl assay volume (i.e., 1:50 dilution). Cold competitor or test competitor is then added, e.g., 5 µl of 100x stock solution such as 5 µl of 1 mM oxymetazoline. Radioligand (^3H-8-OH-DPAT, TRK850, Amersham, 250 µCi in 250 µl; 4.5 µM at 222 Ci/mmol) is then added. For competition studies, ligand is employed (e.g., a 100x stock (i.e., 150 nM) is prepared by diluting the commercial stock 1:30 in binding buffer). Control tubes are prepared which have radioligand but no membranes. The tubes are vortexed then spun briefly. The mixtures are incubated for 1 hour at 4°C. The mixtures are filtered through GF/C filters pre-soaked in polyethyleneimine (0.3% in MilliQ water). The tubes are washed with 2-3 ml of wash buffer and filtered. The filter is washed with 3 x 5 ml of wash buffer, and air dried. 4.5 ml of scintillant is added to the dried filter in a scintillation vial and the filter counted on a tritium channel.
# [2] = tested on: MCP-1 induced human monocyte migration; assay: Migration of freshly prepared peripheral blood monocytes, MCP-1; format: cell-based
# Method: (§1) Agents may also be screened in a chemotactic assay which employs human neutrophils, eosinophils, mast cells, basophils, platelets, lymphocytes or monocytes. For monocytes, 9 mls of fresh blood are transferred to a tube containing 1 ml of 3.8% sodium citrate, and left at room temperature for 15 minutes. Five mls of this anti-coagulated blood are carefully layered over 3.5 ml Polymorphprep® (Nycomed Pharma, Oslo), and centrifuged at 500 g for 35 minutes per the manufacturer's instructions. The top band at the sample/medium interface contains monocytes. The monocytes are carefully removed with a glass pipette, and reconstituted to the original volume (5 ml). The cells are washed with PBS plus 10% fetal calf serum, and centrifuged at 400 g for 10 minutes. The washing step is repeated three times before the cells are counted. Cells are resuspended at 1 × 10^7 cells/ml in RPMI-1640 + 10% fetal calf serum (FCS). The monocytes are cultured for two days at 37°C in a humidified atmosphere of 5% CO2-
# (§2) On day 2, the cells are counted, spun down, and reconstituted to 1 × 10^7 cells/ml in Gey's balanced salt solution + 1 mg/ml bovine serum albumin (BSA). […]
# [3] = tested on: TGFβ1 induced human monocyte migration; assay: Migration of freshly prepared peripheral blood monocytes, TGFβ1; format: cell-based
# Method: as §1, §2
Compound,ED50 for competition of 8-OH-DPAT binding to 5-HT1a receptors [1],% inhibition at 100 µM versus MCP-1 [2],% inhibition at 100 µM versus TGFβ1 [3]
CC[C@@H](C)[C@H]1NC(=O)[C@@H](CCC(N)=O)NC(=O)[C@H](N)CSSC[C@H](C(N)=O)NC(=O)[C@@H](CC(C)C)NC(=O)[C@@H](CC(=O)O)NC(=O)[C@H]2CCCN2C(=O)[C@@H](CCCCN)NC(=O)[C@@H](CCC(N)=O)NC(=O)[C@@H](CCCCN)NC(=O)[C@@H](Cc2c[nH]c3ccccc23)NC1=O (H-[dC][dQ][dI][dW][dK][dQ][dK][dP][dD][dL][dC]-NH2; disulfide 1-11),>100 µM,–,–
CC[C@H](C)[C@H](NC(=O)[C@H](C)NC(=O)[C@H](CC(=O)O)NC(=O)[C@@H]1CCCN1C(=O)[C@H](CCC(N)=O)NC(=O)[C@H](C)N)C(=O)N[C@@H](CC(N)=O)C(=O)N[C@@H](C)C(=O)N1CCC[C@H]1C(=O)N[C@H](C(=O)N[C@H](C(=O)N[C@@H](CS)C(=O)N[C@@H](CS)C(=O)O)[C@@H](C)O)C(C)C [Peptide 1] (H-AQPDAINAPVTCC-OH; N-terminus and C-terminus assumed),–,n.s.,n.s.
